Laboratory results: PubChem BioAssay (NCI)
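The concentration for 50% growth inhibition is given as GI50. Definition used: TGI = concentration required for complete inhibition of growth.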

Columns and labels:
Test in all cases: inhibition of tumour cell growth, NCI panel, 384-well format
PC-3 prostate = system: PC-3 prostate
M14 melanoma = system: M14 melanoma
MCF7 breast = system: MCF7 breast
SNB-19 CNS = system: SNB-19 CNS
HCT-116 colon = system: HCT-116 colon
NCI/ADR-RES ovarian = system: NCI/ADR-RES ovarian
NCI-H322M lung = system: NCI-H322M lung
HCT-15 colon = system: HCT-15 colon
MDA-MB-435 melanoma = system: MDA-MB-435 melanoma
SK-MEL-5 melanoma = system: SK-MEL-5 melanoma
EKVX NSCLC = system: EKVX NSCLC
CCRF-CEM leukemia = system: CCRF-CEM leukemia
NCI-H23 lung = system: NCI-H23 lung
RPMI-8226 leukemia = system: RPMI-8226 leukemia
SF-539 CNS = system: SF-539 CNS
BT-549 breast = system: BT-549 breast
OVCAR-3 ovarian = system: OVCAR-3 ovarian
CAKI-1 renal = system: CAKI-1 renal
A549 NSCLC = system: A549 NSCLC
ACHN renal = system: ACHN renal
SN12C renal = system: SN12C renal
TK-10 renal = system: TK-10 renal
RXF 393 renal = system: RXF 393 renal
HS 578T breast = system: HS 578T breast
KM12 colon = system: KM12 colon
NCI-H522 lung = system: NCI-H522 lung
UO-31 renal = system: UO-31 renal
SF-295 CNS = system: SF-295 CNS
SK-MEL-2 melanoma = system: SK-MEL-2 melanoma
HOP-92 NSCLC = system: HOP-92 NSCLC
HL-60(TB) leukemia = system: HL-60(TB) leukemia
OVCAR-5 ovarian = system: OVCAR-5 ovarian
SNB-75 CNS = system: SNB-75 CNS
OVCAR-4 ovarian = system: OVCAR-4 ovarian
NCI-H226 lung = system: NCI-H226 lung
U251 glioblastoma = system: U251 glioblastoma
LOX IMVI melanoma = system: LOX IMVI melanoma
MDA-MB-468 breast = system: MDA-MB-468 breast
SK-OV-3 ovarian = system: SK-OV-3 ovarian
786-0 renal = system: 786-0 renal
SF-268 CNS = system: SF-268 CNS
MOLT-4 leukemia = system: MOLT-4 leukemia
DU-145 prostate = system: DU-145 prostate
MDA-MB-231 breast = system: MDA-MB-231 breast
NCI-H460 NSCLC = system: NCI-H460 NSCLC
UACC-62 melanoma = system: UACC-62 melanoma
SR leukemia = system: SR leukemia

CC#CC(=O)N1CC[C@@H](n2c(=O)n(-c3ccc(Oc4ccccc4)cc3)c3c(N)ncnc32)C1
GI50 (PC-3 prostate): 35.1 µM | TGI (PC-3 prostate): > 100 µM | GI50 (M14 melanoma): 22.7 µM | TGI (M14 melanoma): 50.1 µM | TGI (MCF7 breast): 80.6 µM | GI50 (SNB-19 CNS): 23.3 µM | TGI (SNB-19 CNS): > 64.3 µM | GI50 (HCT-116 colon): 22.1 µM | TGI (HCT-116 colon): 54.8 µM | GI50 (NCI/ADR-RES ovarian): 15.7 µM | TGI (NCI/ADR-RES ovarian): 41.3 µM | GI50 (NCI-H322M lung): 27.5 µM | TGI (NCI-H322M lung): > 100 µM | GI50 (HCT-15 colon): 28.6 µM | TGI (HCT-15 colon): > 89.5 µM | GI50 (MDA-MB-435 melanoma): 30 µM | TGI (MDA-MB-435 melanoma): > 80.4 µM | GI50 (SK-MEL-5 melanoma): 17.7 µM | TGI (SK-MEL-5 melanoma): 47 µM | GI50 (EKVX NSCLC): 20.7 µM | TGI (EKVX NSCLC): > 77.2 µM | GI50 (CCRF-CEM leukemia): 11.4 µM | TGI (CCRF-CEM leukemia): 23.7 µM | GI50 (NCI-H23 lung): 30.9 µM | TGI (NCI-H23 lung): 99.6 µM | GI50 (RPMI-8226 leukemia): 7.89 µM | TGI (RPMI-8226 leukemia): 23 µM | GI50 (SF-539 CNS): 21.6 µM | TGI (SF-539 CNS): 53.6 µM | GI50 (BT-549 breast): 16.6 µM | TGI (BT-549 breast): 33.9 µM | GI50 (OVCAR-3 ovarian): 14.3 µM | TGI (OVCAR-3 ovarian): 31.3 µM | GI50 (CAKI-1 renal): 23.5 µM | TGI (CAKI-1 renal): > 100 µM | GI50 (A549 NSCLC): 34.8 µM | TGI (A549 NSCLC): > 100 µM | GI50 (ACHN renal): 31.6 µM | TGI (ACHN renal): > 100 µM | GI50 (SN12C renal): 20.2 µM | TGI (SN12C renal): > 90.9 µM | GI50 (TK-10 renal): 36.5 µM | TGI (TK-10 renal): > 100 µM | GI50 (RXF 393 renal): 13.4 µM | TGI (RXF 393 renal): 32.2 µM | GI50 (HS 578T breast): 22.1 µM | TGI (HS 578T breast): 55.9 µM | GI50 (KM12 colon): 27.4 µM | TGI (KM12 colon): > 76.8 µM | GI50 (NCI-H522 lung): 5.88 µM | TGI (NCI-H522 lung): 27.9 µM | GI50 (UO-31 renal): 31.8 µM | TGI (UO-31 renal): > 100 µM | GI50 (SF-295 CNS): 40.5 µM | TGI (SF-295 CNS): > 100 µM | GI50 (SK-MEL-2 melanoma): 18.1 µM | TGI (SK-MEL-2 melanoma): 34.7 µM | GI50 (HOP-92 NSCLC): 13.4 µM | TGI (HOP-92 NSCLC): > 59.6 µM | GI50 (HL-60(TB) leukemia): 13.9 µM | TGI (HL-60(TB) leukemia): 26.9 µM | GI50 (OVCAR-5 ovarian): > 64.3 µM | TGI (OVCAR-5 ovarian): > 100 µM | GI50 (SNB-75 CNS): 28.6 µM | TGI (SNB-75 CNS): 77.2 µM | GI50 (OVCAR-4 ovarian): 29.5 µM | TGI (OVCAR-4 ovarian): > 100 µM | GI50 (NCI-H226 lung): 21.8 µM | TGI (NCI-H226 lung): > 74.4 µM | GI50 (U251 glioblastoma): 18.1 µM | TGI (U251 glioblastoma): 40.3 µM | GI50 (LOX IMVI melanoma): 18.8 µM | TGI (LOX IMVI melanoma): 36.2 µM | GI50 (MDA-MB-468 breast): 10.1 µM | TGI (MDA-MB-468 breast): 24.5 µM | GI50 (SK-OV-3 ovarian): 33.5 µM | TGI (SK-OV-3 ovarian): > 87.1 µM | GI50 (786-0 renal): 23 µM | TGI (786-0 renal): 66.1 µM | GI50 (SF-268 CNS): 25.1 µM | TGI (SF-268 CNS): > 65 µM | GI50 (MOLT-4 leukemia): 3.13 µM | TGI (MOLT-4 leukemia): 12.7 µM | GI50 (DU-145 prostate): 25.5 µM | TGI (DU-145 prostate): > 70.2 µM | GI50 (MDA-MB-231 breast): 22 µM | TGI (MDA-MB-231 breast): > 67.8 µM | GI50 (NCI-H460 NSCLC): 17.1 µM | TGI (NCI-H460 NSCLC): 33.4 µM | GI50 (UACC-62 melanoma): 22.8 µM | TGI (UACC-62 melanoma): > 100 µM | GI50 (SR leukemia): 5.69 µM | TGI (SR leukemia): 18.6 µM
